PubChem BioAssay (NCI)
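Compound exposure: 48 hours, 5 concentrations, 96-well plates. TGI denotes the concentration required for complete inhibition of growth.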

Key:
Assay in all cases: NCI tumour cell line growth inhibition, 48 h
SF-539 CNS = test system: SF-539 CNS
SW-620 colon = test system: SW-620 colon
NCI-H23 lung = test system: NCI-H23 lung
RPMI-8226 leukemia = test system: RPMI-8226 leukemia
MDA-N = test system: MDA-N
IGROV1 ovarian = test system: IGROV1 ovarian
UACC-257 melanoma = test system: UACC-257 melanoma
COLO 205 colon = test system: COLO 205 colon
NCI-H226 lung = test system: NCI-H226 lung
DU-145 prostate = test system: DU-145 prostate
MDA-MB-435 = test system: MDA-MB-435
HS 578T breast = test system: HS 578T breast
A549 NSCLC = test system: A549 NSCLC
NCI-H460 lung = test system: NCI-H460 lung
U251 CNS = test system: U251 CNS
786-0 renal = test system: 786-0 renal
KM12 colon = test system: KM12 colon
RXF 393 renal = test system: RXF 393 renal
HOP-62 NSCLC = test system: HOP-62 NSCLC
SF-268 CNS = test system: SF-268 CNS
SF-295 CNS = test system: SF-295 CNS
HT29 colon = test system: HT29 colon
T-47D breast = test system: T-47D breast
SN12C renal = test system: SN12C renal
OVCAR-8 ovarian = test system: OVCAR-8 ovarian
HCT-116 colon = test system: HCT-116 colon
SK-OV-3 ovarian = test system: SK-OV-3 ovarian
UO-31 renal = test system: UO-31 renal
MOLT-4 leukemia = test system: MOLT-4 leukemia
TK-10 renal = test system: TK-10 renal
HCT-15 colon = test system: HCT-15 colon
OVCAR-3 ovarian = test system: OVCAR-3 ovarian
MCF7 breast = test system: MCF7 breast
ACHN renal = test system: ACHN renal
OVCAR-5 ovarian = test system: OVCAR-5 ovarian
OVCAR-4 ovarian = test system: OVCAR-4 ovarian
NCI/ADR-RES ovarian = test system: NCI/ADR-RES ovarian
MDA-MB-231 breast = test system: MDA-MB-231 breast
M14 melanoma = test system: M14 melanoma
HCC-2998 colon = test system: HCC-2998 colon
SK-MEL-2 melanoma = test system: SK-MEL-2 melanoma
SK-MEL-28 melanoma = test system: SK-MEL-28 melanoma
EKVX NSCLC = test system: EKVX NSCLC
A498 renal = test system: A498 renal
SNB-75 CNS = test system: SNB-75 CNS
UACC-62 melanoma = test system: UACC-62 melanoma
SNB-19 CNS = test system: SNB-19 CNS
SK-MEL-5 melanoma = test system: SK-MEL-5 melanoma
BT-549 breast = test system: BT-549 breast
LOX IMVI melanoma = test system: LOX IMVI melanoma
CCRF-CEM leukemia = test system: CCRF-CEM leukemia
CAKI-1 renal = test system: CAKI-1 renal
K-562 leukemia = test system: K-562 leukemia
MALME-3M melanoma = test system: MALME-3M melanoma
PC-3 prostate = test system: PC-3 prostate
HL-60(TB) leukemia = test system: HL-60(TB) leukemia

Measured: TGI

c1ccc([P+](CCNCCNCC[P+](c2ccccc2)(c2ccccc2)c2ccccc2)(c2ccccc2)c2ccccc2)cc1
not listed: LOX IMVI melanoma | CCRF-CEM leukemia | CAKI-1 renal | K-562 leukemia | MALME-3M melanoma | PC-3 prostate | HL-60(TB) leukemia
> 100 µM: all other assays above

CCOC(=O)c1c(NC(=O)c2ccccc2)sc2c1CCCC2
not listed: A549 NSCLC | NCI-H460 lung | HOP-62 NSCLC | OVCAR-4 ovarian | HCC-2998 colon
> 100 µM: all other assays above
